Measured values: US6656955B2, “Pharmaceutical composition having enhanced antitumor activity and/or reduced side effects, containing an antitumor agent and an hydroximic acid derivative” (priority 1997, dated 2003)

What was measured:
Wistar rats [1] = assay: Cardiac function by ECG in cisplatin-treated rats; type: in vivo, rat; details: cisplatin 50 mg/kg daily, compound L 40 mg/kg daily
Description: (§1) In vivo experiments with rats. […] The animals were healthy (without any tumor inoculation) at the beginning of the experiment, and the dose of the antitumor compound was provocatively/unusually high which by itself would cause tissue damage with high probability. […] During treatment, cardiac function of animals was followed by ECG, and after two weeks of treatment enzymatic activity in the blood of animals was determined.
Cardiac function was monitored by AT-6 ECG on all four limbs. QRS, RR, PR and TQ distances and J point depressions were determined.

Wistar rats [2] = assay: Tissue damage: intracellular enzyme release into serum of cisplatin-treated rats; type: in vivo, rat; details: after two weeks, cisplatin 50 mg/kg daily, compound L 40 mg/kg daily
Description: as §1
Tissue damage was evaluated by measuring intracellular release of enzymes. Enzymatic activity was determined by the method of H. U. Bergmeyer. (Methods in Enzymatic Analysis, 2nd edition, Academic Press (1974)/. The following enzymes were measured:
GOT=glutamate-oxalacetate-transaminase,
GPT=glutamate-piruvate-transaminase,
LDH=lactate dehydrogenase,
LipDH=lipoamide-dehydrogenase,
Enzymatic activity is given in mUnit/m1 serum.

S-180 sarcoma = assay: Tumor growth inhibition, S-180 solid tumor in mice; type: in vivo; details: single (FIG. 1) or repeated injections (FIG. 2)
Description: (§2) In vivo experiments with mice. Single or repeated treatments started on day 1 following transplantation of P-388 or S-180 tumor The therapeutic effectiveness was evaluated on the basis of survival time and tumor volume. The experiments were terminated after 45 days. Long-term survival of mice were not followed beyond 45 days, but the end point was on day 46 following tumor transplantation. The comparative antitumor effect of various treatment groups on the median survival time in days for treated versus control groups was expressed as T/C.
In the case of S-180 solid tumor the tumor growth inhibitory effect of compounds was controlled 3 times for a week using digital caliper. Tumor volume was calculated using the following formula: […]
where “a” and “b” are the shortest and the longest diameter, respectively of a given tumor (Tomayko M. M. and Reynolds C. P.: Determination of subcutaneous tumor size in athymic/nude/mice. Cancer Chemother. Pharmacol, 24, p. 148,1989). Mean values (X) and standard deviations (S.D.) were calculated. The statistically significant difference (p) was determined by Student' t test, where appropriate.

Wistar rats [3] = assay: One month survival after two week treatment of rats; type: in vivo; details: cisplatin 50 mg/kg daily, compound L 40 mg/kg daily
Description: as §1
It was investigated how many percent of animals were still alive following a two week treatment detailed above.

[4] = test system: Sp-2 (mouse myeloma, suspension) cells; assay: Surviving tumor cells in cell culture, trypan blue counting; type: cell-based; details: Sp-2 cells, compound L 40 microgram/ml
Description: Experiments with cell culture. Sp-2 (mouse myeloma, suspension) cells were plated on DMEM (Dubelso modified Eagle medium) in the presence of 10% FCS (fetal calf serum). Cells were plated on 96 hole plate with a starting cell number of 10^4/250 μl.
48 hours after treatment, i.e., addition of the above listed compounds, cells in the holes were counted in a method of staining them with 10 microliter of tripaneblue following suspension. Counting was done in B{overscore (u)}rker chamber.
In this case, one portion of cells were plated without the presence of drug, one portion of cells were plated in the presence of 13 microgram/ml fluoroacil, another portion in the presence of 13 microgram/ml fluoroacil+40 microgram/ml compound “L”. Survival rate was examined […] after treatment.

P-388 leukemia cells = assay: Survival of mice inoculated with P-388 leukemia; type: in vivo, BDF1 mice; details: for Long term Percent survival / Long term Survivors/Total: day 45
Description: as §2
Treatments started 1 day after the i.p. tumor transplantation.

BDF1 male mice = assay: Acute toxicity (survival) in normal mice; type: in vivo; details: for Survival % / Survivors/Total: 25 days observation
Description: In vivo experiments with mice. […] [c.f. Oncology Report (REP/O.O.I./1988/01)]. First generation hybrid BDF1 (C57B1 female×DBA/2 male) adult male mice, weighing 22-24 g, specified pathogen free (SPF) were used for these experiments. The animals were kept in macrolon cages at 22-24° C. (40-50% humidity), with a lighting regimen of 12/12 h light/dark.
The observation period was terminated after 25 days. Of compound “L” doses, the dose of 750 mg/kg body weight, i.p. was lethal (Table 4).

[5] = 48 hours, cisplatin 0.35 microgram/ml
[6] = group 10: CisPt 10 mg/kg i.p., 1 qd
[7] = group 13: CisPt 3 mg/kg i.p., 5 qd
[8] = 40 hours, fluoroacil 13 microgram/ml

N.N.[Cl][Pt][Cl] [Cisplatin, cis-diammine-dichloroplatinum]
J point depression (Wistar rats [1]): 2.1 ± 0.3 mm
QRS (Wistar rats [1]): 102 ms
QRS intensity (Wistar rats [1]): fluctuating
Enzymatic activity CK (creatine-kinase) (Wistar rats [2]): 9776 mU/ml
Enzymatic activity CS (citrate-synthase) (Wistar rats [2]): 22 mU/ml
Enzymatic activity GOT (glutamate-oxalacetate-transaminase) (Wistar rats [2]): 273 mU/ml
Enzymatic activity GPT (glutamate-piruvate-transaminase) (Wistar rats [2]): 87 mU/ml
Enzymatic activity LDH (lactate dehydrogenase) (Wistar rats [2]): 5136 mU/ml
Enzymatic activity LipDH (lipoamide-dehydrogenase) (Wistar rats [2]): 69 mU/ml
Tumor growth inhibitory effect (tumor growth curves, mean tumor volumes) (S-180 sarcoma): significant inhibitory effect
One month survival (%) (Wistar rats [3]): 25%
Surviving cell (%) [4, 5]: 12 ± 4%
T/C % (P-388 leukemia cells; [6]): 147.0%
Long term Percent survival (P-388 leukemia cells; [6]): 29%
Long term Survivors/Total (P-388 leukemia cells; [6]): 2/7
Mean Survival (days) (P-388 leukemia cells; group 10: CisPt 10 mg/kg i.p., 1 qd, non-long-term survivors (5 mice)): 16.6 ± 4.6 day⁻¹
T/C % (P-388 leukemia cells; [7]): 257.0%
Mean Survival (days) (P-388 leukemia cells; group 13: CisPt 3 mg/kg i.p., 5 qd, 4 mice): 29.0 ± 6.1 day⁻¹
Long term Percent survival (P-388 leukemia cells; [7]): 43%
Long term Survivors/Total (P-388 leukemia cells; [7]): 3/7

O=c1[nH]cc(F)c(=O)[nH]1 [Fluoroacil, 5-fluoro-2,4(1H,3H)pyrimidinedione]
Surviving cell (%) [4, 8]: 13 ± 3%

Cl.Cl.NC(=NOCC(O)CN1CCCCC1)c1cccnc1 (stereo not drawn) [compound “L”, O-(3-piperidino-2-hydroxyl-1-propyl)niconitic acid amidoxime dihydrochloride]
Surviving cell (%) [4, 8]: 51 ± 8%
Surviving cell (%) [4, 5]: 51 ± 8%
Toxicity evaluated on the basis of survival (BDF1 male mice; compound L 750 mg/kg body weight, i.p.): lethal
Survival % (BDF1 male mice; group 1: 200 mg/kg i.p., 1 qd): 100%
Survivors/Total (BDF1 male mice; group 1: 200 mg/kg i.p., 1 qd): 7/7
Survival % (BDF1 male mice; group 2: 750 mg/kg i.p., 1 qd): 0%
Survivors/Total (BDF1 male mice; group 2: 750 mg/kg i.p., 1 qd): 0/7
Survival % (BDF1 male mice; group 3: 2000 mg/kg p.o., 1 qd): 100%
Survivors/Total (BDF1 male mice; group 3: 2000 mg/kg p.o., 1 qd): 7/7
Survival % (BDF1 male mice; group 4: 100 mg/kg i.p., 5 qd): 100%
Survivors/Total (BDF1 male mice; group 4: 100 mg/kg i.p., 5 qd): 7/7
Toxicity evaluated on the basis of survival (BDF1 male mice; other single compound L treatments (Table 4)): no effect on the survival
